Reference: US10899758B2, “Inhibitors of the menin-MLL interaction” (Vitae Pharmaceuticals, LLC, priority 2016, dated 2021)

Each compound was assayed against T1, menin/MLL binding (biotinylated wild-type or mutated menin and MLL-AF9 fusion protein) (Homo sapiens, UniProt O00255) (assay: Assay 1 (Binding Assay): AlphaLISA menin/MLL binding). Conditions: 5 nM biotinylated menin, MLL-AF9-FLAG lysate.
T1 construct: biotinylated (1) wild-type menin or (2) mutated menin (described in Nature (2012) Vol. 482, pp. 542-548); fused on or other part: Biotin attached chemically (Sulfo-NHS-Biotin); no fused second protein is printed for menin
T1 sequence (O00255 1-459 limits assumed): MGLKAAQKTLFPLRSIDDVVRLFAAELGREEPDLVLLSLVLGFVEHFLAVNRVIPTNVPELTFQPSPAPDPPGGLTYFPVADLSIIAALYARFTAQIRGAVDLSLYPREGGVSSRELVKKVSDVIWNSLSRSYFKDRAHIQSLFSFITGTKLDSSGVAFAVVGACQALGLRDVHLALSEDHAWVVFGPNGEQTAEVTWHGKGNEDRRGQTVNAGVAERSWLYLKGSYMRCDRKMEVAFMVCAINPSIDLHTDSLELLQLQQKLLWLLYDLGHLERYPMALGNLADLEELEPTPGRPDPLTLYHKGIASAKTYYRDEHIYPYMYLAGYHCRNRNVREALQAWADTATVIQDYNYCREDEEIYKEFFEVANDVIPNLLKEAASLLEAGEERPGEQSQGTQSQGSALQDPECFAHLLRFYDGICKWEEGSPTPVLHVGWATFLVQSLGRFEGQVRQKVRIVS
Description: Potencies of inhibitor compounds against menin/MLL binding were assessed by AlphaLISA assay using biotinylated (1) wild-type menin or (2) mutated menin (described in Nature (2012) Vol. 482, pp. 542-548) and MLL-AF9 fusion protein bearing a FLAG epitope at its C-terminus. Menin proteins were expressed in E. coli and covalently modified with biotin using EZ-Link™ Sulfo-NHS-Biotin (ThermoFisher Cat. No. 21217) according to manufacturer's protocol. MLL1-1,396 fused to AF91-92 and the C-terminal FLAG peptide was expressed in HEK293 cells and used as a lysate cleared at 21,000×g for 10 min.
Compounds (2 μL of solutions in DMSO) were dispensed in white 96-well half-area plates (Corning Cat. No. 3693) and incubated for 30 min at RT with 5 nM biotinylated menin and appropriate amount of MLL-AF9-FLAG lysate in 40 μL of 50 mM Tris-HCl buffer pH 7.4 containing 5% (v/v) DMSO, 50 mM NaCl, 0.01% (w/v) bovine serum albumin (BSA) and 1 mM DTT. To this incubation mixture, 40 μl of AlphaLISA anti-FLAG acceptor (PerkinElmer Cat. No. AL112C) and streptavidin donor (PerkinElmer Cat. No. 6760002) beads (10 μg/mL each) was added and incubation continued at RT for 60 min. Alpha (amplified luminescent proximity homogeneous assay) signal was measured on an Envision multi-label plate reader at the end of the incubation. All steps were conducted under dim fluorescent light.
These percent inhibition values were regressed against compound concentrations in the assay using four parameter logit non-linear curve fitting (XLFit, IDBS). The IC50 values were derived from the curve fitting as inflection points on the dose-response curves and are set out in Table 14 below.
Work on `CC(C)N(C)C(=O)c1cc(F)ccc1-n1cc([C@H]2CC[C@H](N3CC[C@@H](CO)C3)CC2)c2ccncc21` [Example 102, 5-fluoro-2-(3-(trans-4-((R)-3-(hydroxymethyl)pyrrolidin-1-yl)cyclohexyl)-1H-pyrrolo [2,3-c]pyridin-1-yl)-N-isopropyl-N-methylbenzamide] yielded an IC50 of less than 100 nM.
`Cc1c(CN2CCC(c3cn(-c4ccc(F)cc4)c4cncnc34)CC2)ccc2[nH]c(C#N)cc12` [Example 66, 5-((4-(5-(4-fluorophenyl)-5H-pyrrolo[3,2-d]pyrimidin-7-yl)piperidin-1-yl)methyl)-4-methyl-1H-indole-2-carbonitrile] showed an IC50 of 100 to 1000 nM.
With `CC(C)N(C)C(=O)c1cc(F)ccc1-n1cc(C2CCN(c3ccccn3)CC2)c2ccncc21` [Example 94, 5-fluoro-N-isopropyl-N-methyl-2-(3-(1-(pyridin-2-yl)piperidin-4-yl)-1H-pyrrolo[2,3-c]pyridin-1-yl)benzamide] the IC50 was less than 100 nM.
With `CC(C)CCN1CCC(c2cn(-c3ccc(F)cc3)c3cnccc23)CC1` [Example 39, 1-(4-fluorophenyl)-3-(1-isopentylpiperidin-4-yl)-1H-pyrrolo[2,3-c]pyridine] the IC50 was 100 to 1000 nM.
In the case of `CC(C)N(C)C(=O)c1cc(F)ccc1-n1cc([C@H]2CC[C@@H](N3CCC[C@H]3CO)CC2)c2ccncc21` [Example 97, 5-fluoro-2-(3-(cis-4-((S)-2-(hydroxymethyl)pyrrolidin-1-yl)cyclohexyl)-1H-pyrrolo[2,3-c]pyridin-1-yl)-N-isopropyl-N-methylbenzamide], the IC50 is reported as less than 100 nM.
Work on `CC(C)N(C)C(=O)c1cc(F)ccc1-n1cc(C2CCN(CCc3cccc(C#N)c3)CC2)c2ccncc21` [Example 25, 2-(3-(1-(3-cyanophenethyl)piperidin-4-yl)-1H-pyrrolo[2,3-c]pyridin-1-yl)-5-fluoro-N-isopropyl-N-methylbenzamide] yielded an IC50 of less than 100 nM.
`CC(C)N(C)C(=O)c1cc(F)ccc1-n1cc(C2CCC(O)CC2)c2ccncc21` (single isomer, unassigned) [Example 53, 5-fluoro-2-(3-(4-hydroxycyclohexyl)-1H-pyrrolo[2,3-c]pyridin-1-yl)-N-isopropyl-N-methylbenzamide] showed an IC50 of no less than 1000 nM.
Compound `Cc1cc(F)ccc1-n1cc(C2CCN(Cc3ccc4[nH]c(C#N)cc4c3C)CC2)c2ncncc21` [Example 70, 5-((4-(5-(4-fluoro-2-methylphenyl)-5H-pyrrolo[3,2-d]pyrimidin-7-yl)piperidin-1-yl)methyl)-4-methyl-1H-indole-2-carbonitrile] has an IC50 of 100 to 1000 nM.
Work on `Fc1ccc(-n2cc(C3CCN(CC4CCOCC4)CC3)c3ncncc32)cc1` [Example 65, 5-(4-fluorophenyl)-7-(1-((tetrahydro-2H-pyran-4-yl)methyl)piperidin-4-yl)-5H-pyrrolo[3,2-d]pyrimidine] yielded an IC50 of no less than 1000 nM.
Compound `CC(C)N(C)C(=O)c1cc(F)ccc1-n1cc([C@H]2CC[C@@H](N3CC[C@@H](CO)C3)CC2)c2ccncc21` [Example 103, 5-fluoro-2-(3-(cis-4-((R)-3-(hydroxymethyl)pyrrolidin-1-yl)cyclohexyl)-1H-pyrrolo[2,3-c]pyridin-1-yl)-N-isopropyl-N-methylbenzamide] has an IC50 of less than 100 nM.
`CC(C)N(C)C(=O)c1cc(F)ccc1-n1cc(C2CCN(Cc3ccc(S(C)(=O)=O)cc3)CC2)c2ccncc21` [Example 13, 5-fluoro-N-isopropyl-N-methyl-2-(3-(1-(4-(methylsulfonyl)benzyl)piperidin-4-yl)-1H-pyrrolo[2,3-c]pyridin-1-yl)benzamide] was tested, and the IC50 was 100 to 1000 nM.
Work on `CC(C)N(C)C(=O)c1cc(F)ccc1-n1c(=O)n(C2CCN(CC3CCCCC3)CC2)c2ccncc21` [Example 81, 2-(1-(1-(cyclohexylmethyl)piperidin-4-yl)-2-oxo-1,2-dihydro-3H-imidazo[4,5-c]pyridin-3-yl)-5-fluoro-N-isopropyl-N-methylbenzamide] yielded an IC50 of less than 100 nM.
